Results: paper PMC9571063 (Molecules, 2022)
“And” between values parts separate entries of the source, which are not always exact repeats. Equal entries are not always repeated. Structures can show the parent of a compound that is named as a salt. Where two headings read alike, the source gives them in different places.

Columns and labels:
HsCLK1 = target: T1, HsCLK1 (Homo sapiens, UniProt P49759); experiment: ADP-Glo kinase assay; format: biochemical
T1 construct: host or cells: Sf9 insect cells (baculovirus)
T1 sequence (P49759 whole entry): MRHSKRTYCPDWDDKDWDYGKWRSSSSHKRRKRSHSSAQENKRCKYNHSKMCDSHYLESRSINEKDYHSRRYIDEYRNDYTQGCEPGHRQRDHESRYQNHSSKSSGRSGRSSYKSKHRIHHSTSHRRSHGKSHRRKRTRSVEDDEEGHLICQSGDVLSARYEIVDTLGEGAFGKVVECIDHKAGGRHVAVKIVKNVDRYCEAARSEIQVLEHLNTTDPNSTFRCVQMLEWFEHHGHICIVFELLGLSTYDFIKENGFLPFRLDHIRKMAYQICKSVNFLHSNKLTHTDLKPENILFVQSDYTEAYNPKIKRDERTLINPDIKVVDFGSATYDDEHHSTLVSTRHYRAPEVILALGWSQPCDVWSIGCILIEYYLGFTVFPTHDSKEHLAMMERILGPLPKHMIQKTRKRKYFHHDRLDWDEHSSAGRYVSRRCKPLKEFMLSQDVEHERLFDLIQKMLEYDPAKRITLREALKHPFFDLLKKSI

HsDYRK1A = target: T2, HsDYRK1A (Homo sapiens, UniProt Q13627); experiment: ADP-Glo kinase assay; format: biochemical; settings: for remaining activity at 1 µM / remaining activity at 10 µM: n=2, read-out: % of residual activity Hs_DYRK1A; for IC50: 10 µM ATP, duplicate
T2 construct: host or cells: Sf9 insect cells (baculovirus)

MmCLK1 = target: T3, MmCLK1 (Mus musculus, UniProt P22518); experiment: ADP-Glo kinase assay; format: biochemical; settings: for remaining activity at 1 µM / remaining activity at 10 µM: n=2, read-out: % of residual activity Mm_CLK1
T3 construct: host or cells: bacteria
T3 sequence (P22518 whole entry): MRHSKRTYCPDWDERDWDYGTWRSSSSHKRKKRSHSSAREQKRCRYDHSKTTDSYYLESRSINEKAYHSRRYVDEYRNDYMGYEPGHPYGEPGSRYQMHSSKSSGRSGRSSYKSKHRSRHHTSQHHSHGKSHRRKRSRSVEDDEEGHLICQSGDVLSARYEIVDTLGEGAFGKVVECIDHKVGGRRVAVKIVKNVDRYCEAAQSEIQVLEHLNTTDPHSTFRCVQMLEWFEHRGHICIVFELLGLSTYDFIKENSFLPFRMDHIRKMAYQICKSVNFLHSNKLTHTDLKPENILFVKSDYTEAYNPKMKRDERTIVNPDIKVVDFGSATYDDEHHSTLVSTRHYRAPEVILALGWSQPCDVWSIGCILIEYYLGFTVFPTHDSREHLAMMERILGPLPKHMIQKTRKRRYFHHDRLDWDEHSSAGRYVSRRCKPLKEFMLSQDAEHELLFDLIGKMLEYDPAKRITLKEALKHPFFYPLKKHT

Hs_CDK9/CyclinT = target: T4, Hs_CDK9/CyclinT (Homo sapiens, UniProt P50750); experiment: ADP-Glo kinase assay, primary screen; format: biochemical; settings: n=2, read-out: % of residual activity Hs_CDK9/CyclinT
T4 construct: host or cells: Sf9 insect cells (baculovirus)
T4 sequence (P50750 whole entry): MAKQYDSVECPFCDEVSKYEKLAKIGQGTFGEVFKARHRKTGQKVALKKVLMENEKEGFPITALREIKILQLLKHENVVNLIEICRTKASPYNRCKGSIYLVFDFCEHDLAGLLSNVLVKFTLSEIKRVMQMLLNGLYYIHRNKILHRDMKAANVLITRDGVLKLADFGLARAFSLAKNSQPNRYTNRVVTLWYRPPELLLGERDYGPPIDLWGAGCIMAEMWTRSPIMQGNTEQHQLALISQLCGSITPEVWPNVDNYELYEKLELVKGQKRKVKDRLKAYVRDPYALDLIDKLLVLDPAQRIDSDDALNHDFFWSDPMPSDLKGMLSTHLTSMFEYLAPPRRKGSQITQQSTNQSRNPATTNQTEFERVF
T4 sequence (O60563 whole entry partner): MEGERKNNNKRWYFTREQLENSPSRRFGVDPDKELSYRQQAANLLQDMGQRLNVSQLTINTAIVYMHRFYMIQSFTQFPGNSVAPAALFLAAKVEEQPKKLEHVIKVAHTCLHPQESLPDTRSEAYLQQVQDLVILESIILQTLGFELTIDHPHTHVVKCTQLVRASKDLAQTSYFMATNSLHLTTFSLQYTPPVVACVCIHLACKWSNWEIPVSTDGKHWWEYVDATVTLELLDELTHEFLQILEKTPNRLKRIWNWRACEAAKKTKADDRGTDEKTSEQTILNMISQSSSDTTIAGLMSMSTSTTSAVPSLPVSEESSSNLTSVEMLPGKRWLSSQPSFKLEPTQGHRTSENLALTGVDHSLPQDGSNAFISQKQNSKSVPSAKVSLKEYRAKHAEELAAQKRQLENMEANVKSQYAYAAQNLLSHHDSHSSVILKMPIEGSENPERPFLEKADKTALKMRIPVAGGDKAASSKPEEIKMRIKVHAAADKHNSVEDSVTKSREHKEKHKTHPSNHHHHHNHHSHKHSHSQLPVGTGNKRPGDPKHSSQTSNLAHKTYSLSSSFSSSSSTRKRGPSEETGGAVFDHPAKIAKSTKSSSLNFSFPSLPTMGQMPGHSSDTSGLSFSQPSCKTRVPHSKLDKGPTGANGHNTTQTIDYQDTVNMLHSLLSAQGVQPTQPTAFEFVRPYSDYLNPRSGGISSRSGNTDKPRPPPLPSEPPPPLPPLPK

Rn_DYRK1A = target: T5, Rn_DYRK1A (Rattus norvegicus, UniProt Q63470); experiment: ADP-Glo kinase assay, primary screen; format: biochemical; settings: n=2, read-out: % of residual activity Rn_DYRK1A
T5 construct: host or cells: bacteria

Hs_HASPIN = target: T6, Hs_HASPIN (Homo sapiens, UniProt Q8TF76); experiment: ADP-Glo kinase assay, primary screen; format: biochemical; settings: n=2, read-out: % of residual activity Hs_HASPIN
T6 construct: host or cells: bacteria
T6 sequence (Q8TF76 1-798): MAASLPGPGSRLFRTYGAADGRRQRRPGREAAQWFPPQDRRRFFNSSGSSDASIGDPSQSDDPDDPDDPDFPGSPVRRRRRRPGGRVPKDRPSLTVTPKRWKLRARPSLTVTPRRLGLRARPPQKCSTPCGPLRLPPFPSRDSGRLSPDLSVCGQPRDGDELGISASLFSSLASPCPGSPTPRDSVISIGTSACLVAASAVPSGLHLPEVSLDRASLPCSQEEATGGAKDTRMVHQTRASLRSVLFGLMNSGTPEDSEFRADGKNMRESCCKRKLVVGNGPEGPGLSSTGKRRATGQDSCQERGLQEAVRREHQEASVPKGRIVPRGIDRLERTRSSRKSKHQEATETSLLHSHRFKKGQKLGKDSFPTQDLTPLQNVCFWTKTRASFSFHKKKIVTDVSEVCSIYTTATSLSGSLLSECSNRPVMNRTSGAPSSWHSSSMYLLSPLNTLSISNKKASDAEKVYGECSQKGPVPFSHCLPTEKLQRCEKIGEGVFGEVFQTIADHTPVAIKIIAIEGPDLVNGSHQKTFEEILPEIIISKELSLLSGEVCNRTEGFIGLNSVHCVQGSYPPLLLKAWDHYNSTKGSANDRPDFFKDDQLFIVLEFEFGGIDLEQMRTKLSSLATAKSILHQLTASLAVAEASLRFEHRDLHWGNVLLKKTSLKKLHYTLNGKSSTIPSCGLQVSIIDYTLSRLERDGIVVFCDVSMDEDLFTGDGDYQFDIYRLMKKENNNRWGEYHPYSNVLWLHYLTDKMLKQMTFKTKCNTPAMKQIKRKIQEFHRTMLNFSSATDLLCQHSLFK

Hs_CK1ε = target: T7, Hs_CK1ε (Homo sapiens, UniProt P49674); experiment: ADP-Glo kinase assay, primary screen; format: biochemical; settings: n=2, read-out: % of residual activity Hs_CK1ε
T7 construct: host or cells: Sf9 insect cells (baculovirus)
T7 sequence (P49674 whole entry): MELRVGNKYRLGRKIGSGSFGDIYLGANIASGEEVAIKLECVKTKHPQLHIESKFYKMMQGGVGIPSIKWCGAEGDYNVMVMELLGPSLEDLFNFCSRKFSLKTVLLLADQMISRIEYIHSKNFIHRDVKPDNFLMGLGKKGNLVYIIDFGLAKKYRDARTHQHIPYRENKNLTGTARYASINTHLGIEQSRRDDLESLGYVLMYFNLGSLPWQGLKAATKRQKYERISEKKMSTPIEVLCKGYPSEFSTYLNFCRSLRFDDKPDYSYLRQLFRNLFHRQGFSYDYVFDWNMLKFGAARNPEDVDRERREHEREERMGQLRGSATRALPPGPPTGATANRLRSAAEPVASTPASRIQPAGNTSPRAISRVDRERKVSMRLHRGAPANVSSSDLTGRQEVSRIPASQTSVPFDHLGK

[1] = cytotoxic assay, nuclei count (Hoechst, HCS); format: cell-based; settings: human, HuH7 cells (hepatocellular carcinoma); 48 h treatment; read-out: Cytotoxic studies IC50 HuH7
[2] = cytotoxic assay, nuclei count (Hoechst, HCS); format: cell-based; settings: human, Caco-2 cells (colorectal adenocarcinoma); 48 h treatment; read-out: Cytotoxic studies IC50 Caco2
[3] = cytotoxic assay, nuclei count (Hoechst, HCS); format: cell-based; settings: human, MDA-MB-231 cells (breast carcinoma); 48 h treatment; read-out: Cytotoxic studies IC50 MDA-MB-231
[4] = cytotoxic assay, nuclei count (Hoechst, HCS); format: cell-based; settings: human, 48 h treatment
[5] = cytotoxic assay, nuclei count (Hoechst, HCS); format: cell-based, human; settings: human, human skin fibroblasts (non-cancerous reference cells); 48 h treatment; some cells add low/moderate/high amplitude; read-out: Cytotoxic studies IC50 Fibroblasts
[6] = 10 µM ATP, duplicate, read-out: IC50 HsCLK1
[7] = mouse CLK1 orthologue, read-out: IC50 MmCLK1
[8] = HCT116 cells (colorectal adenocarcinoma), read-out: Cytotoxic studies IC50 HCT116
[9] = MDA-MB-468 cells (breast carcinoma), read-out: Cytotoxic studies IC50 MDA-MB-468

Compound | IC50 (HsCLK1; [6]) | remaining activity at 1 µM (HsDYRK1A) [%] | remaining activity at 10 µM (HsDYRK1A) [%] | remaining activity at 1 µM (MmCLK1) [%] | remaining activity at 10 µM (MmCLK1) [%] | IC50 (MmCLK1; [7]) [µM] | remaining activity at 1 µM (Hs_CDK9/CyclinT) [%] | remaining activity at 10 µM (Hs_CDK9/CyclinT) [%] | remaining activity at 1 µM (Rn_DYRK1A) [%] | remaining activity at 10 µM (Rn_DYRK1A) [%] | remaining activity at 1 µM (Hs_HASPIN) [%] | remaining activity at 10 µM (Hs_HASPIN) [%] | remaining activity at 1 µM (Hs_CK1ε) [%] | remaining activity at 10 µM (Hs_CK1ε) [%] | IC50 at 48 h [1] [µM] | IC50 at 48 h [2] [µM] | IC50 at 48 h [3] [µM] | IC50 at 48 h [4, 8] [µM] | IC50 at 48 h [4, 9] [µM] | IC50 at 48 h [5] [µM] | other results
Cc1ccc(-n2cc(COc3cccc4cnc(Nc5cc(Cl)cc(Cl)c5)nc34)nn2)c([N+](=O)[O-])c1 [7b, N-(3,5-dichlorophenyl)-8-((1-(4-methyl-2-nitrophenyl)-1H-1,2,3-triazol-4-yl)methoxy)quinazolin-2-amine] | 0.085 µM | ≥ 100 | 80 | 14 | 17 | 0.28 to 0.369 | 80 | 34 | 87 | 95 | 81 | 46 | 81 | 47 | > 25 | > 25 | > 25 | > 25 | > 25 | > 25 | activity on the human DYRK1A (HsDYRK1A): completely inactive; IC50 (HsDYRK1A): > 100 µM
O=[N+]([O-])c1cc(Br)ccc1-n1cc(COc2cccc3cnc(Nc4cccc(Cl)c4)nc23)nn1 [12d, N-(3-Chlorophenyl)-8-((1-(4-bromo-2-nitrophenyl)-1H-1,2,3-triazol-4-yl)methoxy)quinazolin-2-amine] | 0.2 to 0.3 µM and 0.378 µM | ≥ 100 | 77 | 27 | 22 | 0.391 | 85 | 43 | ≥ 100 | 76 | 91 | 95 | ≥ 100 | 90 | 2 | > 25 | > 25 | > 25 | > 25 | 13 | –
O=[N+]([O-])c1cc(CO)ccc1-n1cc(COc2cccc3cnc(Nc4cccc(Cl)c4)nc23)nn1 [12e, 4-(4-(((2-((3-Chlorophenyl)amino)quinazolin-8-yl)oxy)methyl)-1H-1,2,3-triazol-1-yl)-3-nitrobenzyl alcohol] | 0.146 µM | 84 | 31 | 74 | 35 | 0.191 | 74 | 21 | 80 | 34 | 92 | 88 | ≥ 100 | 52 | 3 | 7 | 6 | 3 | 4 | 6 | IC50 (HsCLK1; read-out: IC50 human CLK1): 0.15 to 0.2 µM; IC50 (HsDYRK1A): 2.3 µM and 2.33 µM
COC(=O)c1ccc(-n2cc(COc3cccc4cnc(Nc5cccc(Cl)c5)nc34)nn2)c([N+](=O)[O-])c1 [12f, Methyl 4-(4-(((2-((3-chlorophenyl)amino)quinazolin-8-yl)oxy)methyl)-1H-1,2,3-triazol-1-yl)-3-nitrobenzoate] | 0.293 µM | ≥ 100 | 93 | 28 | 18 | 0.245 | 73 | 45 | ≥ 100 | 83 | 73 | 76 | ≥ 100 | 95 | > 25 | > 25 | > 25 | > 25 | > 25 | > 25 | –
O=C(O)c1ccc(-n2cc(COc3cccc4cnc(Nc5cccc(Cl)c5)nc34)nn2)c([N+](=O)[O-])c1 [12g, 4-(4-(((2-((3-Chlorophenyl)amino)quinazolin-8-yl)oxy)methyl)-1H-1,2,3-triazol-1-yl)-3-nitrobenzoic acid] | 0.004 µM | 86 | 50 | 13 | 5 | 0.024 | 38 | 21 | 61 | 39 | 75 | 69 | 98 | 72 | > 25 | > 25 | > 25 | > 25 | > 25 | > 25 | IC50 (HsDYRK1A): 3.94 µM
N[C@H]1CC[C@@H](n2cc(COc3cccc4cnc(Nc5cc(Cl)cc(Cl)c5)nc34)nn2)CC1 [16b, 8-((1-((cis)-4-Aminocyclohexyl)-1H-1,2,3-triazol-4-yl)methoxy)-N-(3,5-dichlorophenyl)quinazolin-2-amine hydrochloride] | 0.053 µM | 85 | 38 | 19 | 8 | 0.18 | 61 | 18 | 71 | 20 | 76 | 76 | 82 | 24 | 2 | 3 | 2 | 2.4 | 1 | 2 | IC50 (HsDYRK1A): 1.9 µM
Cc1ccc(-n2cc(COc3cccc4cnc(Nc5cccc(Cl)c5)nc34)nn2)c([N+](=O)[O-])c1 [DB18] | – | – | – | – | – | – | – | – | – | – | – | – | – | – | – | – | – | – | – | – | IC50 (MmCLK1): 0.12 µM
